Measurements published in PubChem BioAssay (NCI).
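Compound exposure: 48 hours, 5 concentrations, 96-well plates. GI50: concentration for 50% inhibition of growth. TGI marks complete inhibition of growth.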

Columns and labels:
Test in all cases: NCI anticancer screen, dose series, 48 h
786-0 renal = tested on: 786-0 renal
A498 renal = tested on: A498 renal
A549 NSCLC = tested on: A549 NSCLC
ACHN renal = tested on: ACHN renal
BT-549 breast = tested on: BT-549 breast
CAKI-1 renal = tested on: CAKI-1 renal
CCRF-CEM leukemia = tested on: CCRF-CEM leukemia
COLO 205 colon = tested on: COLO 205 colon
DU-145 prostate = tested on: DU-145 prostate
EKVX NSCLC = tested on: EKVX NSCLC
HCC-2998 colon = tested on: HCC-2998 colon
HCT-116 colon = tested on: HCT-116 colon
HCT-15 colon = tested on: HCT-15 colon
HOP-62 NSCLC = tested on: HOP-62 NSCLC
HS 578T breast = tested on: HS 578T breast
HT29 colon = tested on: HT29 colon
IGROV1 ovarian = tested on: IGROV1 ovarian
KM12 colon = tested on: KM12 colon
LOX IMVI melanoma = tested on: LOX IMVI melanoma
M14 melanoma = tested on: M14 melanoma
MALME-3M melanoma = tested on: MALME-3M melanoma
MCF7 breast = tested on: MCF7 breast
MDA-MB-231 breast = tested on: MDA-MB-231 breast
MDA-MB-435 = tested on: MDA-MB-435
MOLT-4 leukemia = tested on: MOLT-4 leukemia
NCI-H226 lung = tested on: NCI-H226 lung
NCI-H23 lung = tested on: NCI-H23 lung
NCI-H460 lung = tested on: NCI-H460 lung
NCI-H522 lung = tested on: NCI-H522 lung
NCI/ADR-RES ovarian = tested on: NCI/ADR-RES ovarian
OVCAR-3 ovarian = tested on: OVCAR-3 ovarian
OVCAR-4 ovarian = tested on: OVCAR-4 ovarian
OVCAR-5 ovarian = tested on: OVCAR-5 ovarian
OVCAR-8 ovarian = tested on: OVCAR-8 ovarian
PC-3 prostate = tested on: PC-3 prostate
RPMI-8226 leukemia = tested on: RPMI-8226 leukemia
RXF 393 renal = tested on: RXF 393 renal
SF-268 CNS = tested on: SF-268 CNS
SF-295 CNS = tested on: SF-295 CNS
SF-539 CNS = tested on: SF-539 CNS
SK-MEL-2 melanoma = tested on: SK-MEL-2 melanoma
SK-MEL-28 melanoma = tested on: SK-MEL-28 melanoma
SK-MEL-5 melanoma = tested on: SK-MEL-5 melanoma
SK-OV-3 ovarian = tested on: SK-OV-3 ovarian
SN12C renal = tested on: SN12C renal
SNB-19 CNS = tested on: SNB-19 CNS
SNB-75 CNS = tested on: SNB-75 CNS
SR leukemia = tested on: SR leukemia
SW-620 colon = tested on: SW-620 colon
T-47D breast = tested on: T-47D breast
TK-10 renal = tested on: TK-10 renal
U251 CNS = tested on: U251 CNS
UACC-257 melanoma = tested on: UACC-257 melanoma
UACC-62 melanoma = tested on: UACC-62 melanoma
UO-31 renal = tested on: UO-31 renal

## CCCC1(CN2c3ccccc3Sc3ccc(Cl)cc32)CCN(CC)C1 (stereo not given)
786-0 renal
  GI50: 1890 nM
  TGI: 3.52 µM
A498 renal
  GI50: 1600 nM
  TGI: 3.12 µM
A549 NSCLC
  GI50: 1780 nM
  TGI: 3.38 µM
ACHN renal
  GI50: 1760 nM
  TGI: 3.31 µM
BT-549 breast
  GI50: 1800 nM
  TGI: 3.37 µM
CAKI-1 renal
  GI50: 1700 nM
  TGI: 3.2 µM
CCRF-CEM leukemia
  GI50: 3.49 µM
  TGI: > 100 µM
COLO 205 colon
  GI50: 1640 nM
  TGI: 3.3 µM
DU-145 prostate
  GI50: 1810 nM
  TGI: 3.37 µM
EKVX NSCLC
  GI50: 1770 nM
  TGI: 3.55 µM
HCC-2998 colon
  GI50: 1680 nM
  TGI: 3.27 µM
HCT-116 colon
  GI50: 1810 nM
  TGI: 3.29 µM
HCT-15 colon
  GI50: 1880 nM
  TGI: 3.84 µM
HOP-62 NSCLC
  GI50: 1590 nM
  TGI: 3.08 µM
HS 578T breast
  GI50: 1830 nM
  TGI: 4.88 µM
HT29 colon
  GI50: 1880 nM
  TGI: 3.75 µM
IGROV1 ovarian
  GI50: 1920 nM
  TGI: 3.69 µM
KM12 colon
  GI50: 1650 nM
  TGI: 3.18 µM
LOX IMVI melanoma
  GI50: 1670 nM
  TGI: 3.37 µM
M14 melanoma
  GI50: 1860 nM
  TGI: 3.49 µM
MALME-3M melanoma
  GI50: 1880 nM
  TGI: 3.63 µM
MCF7 breast
  GI50: 1860 nM
  TGI: 3.5 µM
MDA-MB-231 breast
  GI50: 1880 nM
  TGI: 3.55 µM
MDA-MB-435
  GI50: 1790 nM
  TGI: 3.47 µM
MOLT-4 leukemia
  GI50: 3.27 µM
  TGI: > 100 µM
NCI-H226 lung
  GI50: 1740 nM
  TGI: 3.76 µM
NCI-H23 lung
  GI50: 1750 nM
  TGI: 3.55 µM
NCI-H460 lung
  GI50: 1940 nM
  TGI: 3.67 µM
NCI-H522 lung
  GI50: 1900 nM
  TGI: 3.64 µM
NCI/ADR-RES ovarian
  GI50: 1680 nM
  TGI: 3.36 µM
OVCAR-3 ovarian
  GI50: 1610 nM
  TGI: 3.09 µM
OVCAR-4 ovarian
  GI50: 1750 nM
  TGI: 3.39 µM
OVCAR-5 ovarian
  GI50: 1710 nM
  TGI: 3.48 µM
OVCAR-8 ovarian
  GI50: 1780 nM
  TGI: 3.35 µM
PC-3 prostate
  GI50: 1680 nM
  TGI: 3.38 µM
RPMI-8226 leukemia
  GI50: 2590 nM
  TGI: 5.73 µM
RXF 393 renal
  GI50: 1540 nM
  TGI: 2940 nM
SF-268 CNS
  GI50: 1860 nM
  TGI: 3.88 µM
SF-295 CNS
  GI50: 1700 nM
  TGI: 3.3 µM
SF-539 CNS
  GI50: 1850 nM
  TGI: 3.61 µM
SK-MEL-2 melanoma
  GI50: 2300 nM
  TGI: 4.28 µM
SK-MEL-28 melanoma
  GI50: 1920 nM
  TGI: 3.48 µM
SK-MEL-5 melanoma
  GI50: 1620 nM
  TGI: 3000 nM
SK-OV-3 ovarian
  GI50: 1770 nM
  TGI: 3.45 µM
SN12C renal
  GI50: 3.03 µM
  TGI: 8.74 µM
SNB-19 CNS
  GI50: 2000 nM
  TGI: 3.78 µM
SNB-75 CNS
  GI50: 1770 nM
  TGI: 3.74 µM
SR leukemia
  GI50: 3.17 µM
  TGI: > 100 µM
SW-620 colon
  GI50: 1700 nM
  TGI: 3.31 µM
T-47D breast
  GI50: 2210 nM
  TGI: 5.03 µM
TK-10 renal
  GI50: 1700 nM
  TGI: 3.32 µM
U251 CNS
  GI50: 1660 nM
  TGI: 3.16 µM
UACC-257 melanoma
  GI50: 1770 nM
  TGI: 3.56 µM
UACC-62 melanoma
  GI50: 1920 nM
  TGI: 3.6 µM
UO-31 renal
  GI50: 1510 nM
  TGI: 2970 nM
